Source: ChEMBL document CHEMBL2146368, “Protective effects of caffeoylquinic acids on the aggregation and neurotoxicity of the 42-residue amyloid β-protein” (Bioorg Med Chem, 2012)
Activity calls are given as the source filed them. The rule behind the calls is not given here.

Columns and labels:
[1] = molecular target: T1, Amyloid-beta precursor protein (Homo sapiens, UniProt P05067); assay: Inhibition of amyloid beta (1 to 42)-mediated neurotoxicity in human SH-SY5Y cells assessed as increase in cell viability after 48 hrs by MTT assay; type: cell-based
T1 sequence (P05067 whole entry): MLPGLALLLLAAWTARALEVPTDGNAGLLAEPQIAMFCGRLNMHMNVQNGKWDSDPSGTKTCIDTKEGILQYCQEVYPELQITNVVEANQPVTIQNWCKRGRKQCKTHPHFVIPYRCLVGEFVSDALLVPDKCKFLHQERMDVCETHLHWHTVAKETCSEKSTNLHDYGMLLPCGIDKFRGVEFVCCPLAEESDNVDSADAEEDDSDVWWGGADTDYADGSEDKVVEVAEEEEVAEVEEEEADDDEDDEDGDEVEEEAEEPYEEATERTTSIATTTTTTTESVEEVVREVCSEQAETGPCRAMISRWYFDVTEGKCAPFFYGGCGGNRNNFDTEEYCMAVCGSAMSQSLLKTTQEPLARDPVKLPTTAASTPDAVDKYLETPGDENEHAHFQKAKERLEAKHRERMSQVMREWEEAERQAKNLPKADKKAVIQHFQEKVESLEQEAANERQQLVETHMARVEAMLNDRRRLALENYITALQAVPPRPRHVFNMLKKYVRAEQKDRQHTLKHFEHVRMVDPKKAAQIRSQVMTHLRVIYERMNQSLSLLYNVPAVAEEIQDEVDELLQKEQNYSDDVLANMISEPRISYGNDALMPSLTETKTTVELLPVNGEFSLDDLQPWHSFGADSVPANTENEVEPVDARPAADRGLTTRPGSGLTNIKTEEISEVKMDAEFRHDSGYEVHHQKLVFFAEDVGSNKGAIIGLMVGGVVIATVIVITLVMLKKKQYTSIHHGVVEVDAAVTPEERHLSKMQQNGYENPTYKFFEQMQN

[2] = molecular target: T1, Amyloid-beta precursor protein; assay: Inhibition of human amyloid beta (1 to 42) fibril formation at 50 uM after 24 hrs by transmission electron microscopic analysis
[3] = molecular target: T1, Amyloid-beta precursor protein; assay: Inhibition of human amyloid beta (1 to 42) aggregates by measuring monomer concentration at 20 uM after 48 hrs by thermodynamic stability assay
[4] = molecular target: T1, Amyloid-beta precursor protein; assay: Inhibition of human amyloid beta (1 to 42) beta-sheet formation at 50 uM after 12 to 24 hrs by CD-spectra analysis
[5] = molecular target: T1, Amyloid-beta precursor protein; assay: Inhibition of human amyloid beta (1 to 42) aggregation after 24 hrs by thioflavin-T fluorescence assay
[6] = molecular target: T1, Amyloid-beta precursor protein; assay: Inhibition of human amyloid beta (1 to 42) aggregation at 1 to 100 uM after 24 hrs by thioflavin-T fluorescence assay
[7] = molecular target: T1, Amyloid-beta precursor protein; assay: Inhibition of amyloid beta (1 to 42)-mediated neurotoxicity in human SH-SY5Y cells assessed as increase in cell viability at 20 uM after 48 hrs by MTT assay; type: cell-based
[8] = molecular target: T1, Amyloid-beta precursor protein; assay: Inhibition of human amyloid beta (1 to 42) oligomerization assessed as decrease in trimer formation at 25 uM after 2 hrs by Western blot analysis
[9] = molecular target: T1, Amyloid-beta precursor protein; assay: Inhibition of human amyloid beta (1 to 42) oligomerization assessed as decrease in trimer formation at 50 uM after 2 hrs by Western blot analysis
[10] = molecular target: T1, Amyloid-beta precursor protein; assay: Inhibition of human amyloid beta (1 to 42) oligomerization at 90 uM after 24 to 144 hrs by Dot blot analysis

IC50 [5] | inhibition [6] | Structure (SMILES) | also measured
0.1 µM | Active | O=C(/C=C/c1ccc(O)c(O)c1)O[C@H]1[C@H](O)C[C@](O)(C(=O)O)C[C@H]1OC(=O)/C=C/c1ccc(O)c(O)c1 | inhibition [1]: Dose-dependent effect; inhibition [2]: Active; Activity [3]: 10 µM; inhibition [4]: Active; Activity [7]: 78.9%
> 100 µM | inactive | COC(=O)[C@]1(O)C[C@@H](O)[C@@H](O)[C@H](OC(=O)/C=C/c2ccc(O)c(O)c2)C1 [CHLOROGENIC ACID METHYL ESTER] | –
0.3 µM | Active | O=C(/C=C/c1ccc(O)c(O)c1)O[C@@H]1C[C@](O)(C(=O)O)C[C@@H](OC(=O)/C=C/c2ccc(O)c(O)c2)[C@H]1OC(=O)/C=C/c1ccc(O)c(O)c1 | inhibition [1]: Dose-dependent effect; inhibition [2]: Active; Activity [3]: 27 µM; inhibition [4]: Active; inhibition [8]: 87.6%; inhibition [9]: 63.1%; Activity [7]: 96.1%; inhibition [10]: Active
32.8 µM | – | O=C(O)/C=C/c1ccc(O)c(O)c1 [CAFFEIC ACID] | inhibition [5]: Dose-dependent effect
2.2 µM | Active | O=C(/C=C/c1ccc(O)c(O)c1)O[C@H]1[C@H](O)C[C@](OC(=O)/C=C/c2ccc(O)c(O)c2)(C(=O)O)C[C@H]1OC(=O)/C=C/c1ccc(O)c(O)c1 | –

Second part, the compound before the results:

Structure (SMILES) | IC50 [5] | inhibition [6] | also measured
O=C(/C=C/c1ccc(O)c(O)c1)O[C@@H]1C[C@](O)(C(=O)O)C[C@@H](OC(=O)/C=C/c2ccc(O)c(O)c2)[C@H]1O | 16.4 µM | Active | –
O=C(/C=C/c1ccc(O)c(O)c1)O[C@@H]1C[C@](O)(C(=O)O)C[C@@H](O)[C@H]1O [CHLOROGENIC ACID] | 92.9 µM | – | inhibition [5]: Dose-dependent effect
COC(=O)[C@]1(O)C[C@@H](OC(=O)/C=C/c2ccc(O)c(O)c2)[C@@H](OC(=O)/C=C/c2ccc(O)c(O)c2)[C@H](OC(=O)/C=C/c2ccc(O)c(O)c2)C1 | 3 µM | Active | –
O=C(O)[C@]1(O)C[C@@H](O)[C@@H](O)[C@H](O)C1 (relative stereo) [QUINIC ACID] | > 100 µM | inactive | Activity [3]: 1.2 µM; inhibition [9]: 100%
O=C(O)/C=C/c1ccccc1 [CINNAMIC ACID] | > 100 µM | inactive | –
O=C(/C=C/c1ccc(O)c(O)c1)O[C@@H]1[C@H](O)C[C@@](O)(C(=O)O)C[C@H]1OC(=O)/C=C/c1ccc(O)c(O)c1 | 4.7 µM | Active | –
